Test results as given in US20200031866A1, “PEPTIDE INHIBITORS OF SODIUM CHANNELS” (SPYRYX BIOSCIENCES, INC., priority 2016, published 2020).
Square brackets hold non-standard residues; d marks the D form. Ends that are not written are not given here. Nle = CCCC[C@H](N)C(=O)O

Legend:
Heat stability = assay type: physicochemical
alpha-ENaC [1] = target: T1, alpha-ENaC (Homo sapiens, UniProt P37088); experiment: Internalization of alpha-ENaC in HEK293T cells, GFP-tagged alpha-ENaC co-expressed only with gamma ENaC and no beta-ENaC; assay type: cell-based; conditions: FIG. 6
T1 construct: expressed in transfected cells; host or cells: HEK293T
T1 sequence (P37088 1-669): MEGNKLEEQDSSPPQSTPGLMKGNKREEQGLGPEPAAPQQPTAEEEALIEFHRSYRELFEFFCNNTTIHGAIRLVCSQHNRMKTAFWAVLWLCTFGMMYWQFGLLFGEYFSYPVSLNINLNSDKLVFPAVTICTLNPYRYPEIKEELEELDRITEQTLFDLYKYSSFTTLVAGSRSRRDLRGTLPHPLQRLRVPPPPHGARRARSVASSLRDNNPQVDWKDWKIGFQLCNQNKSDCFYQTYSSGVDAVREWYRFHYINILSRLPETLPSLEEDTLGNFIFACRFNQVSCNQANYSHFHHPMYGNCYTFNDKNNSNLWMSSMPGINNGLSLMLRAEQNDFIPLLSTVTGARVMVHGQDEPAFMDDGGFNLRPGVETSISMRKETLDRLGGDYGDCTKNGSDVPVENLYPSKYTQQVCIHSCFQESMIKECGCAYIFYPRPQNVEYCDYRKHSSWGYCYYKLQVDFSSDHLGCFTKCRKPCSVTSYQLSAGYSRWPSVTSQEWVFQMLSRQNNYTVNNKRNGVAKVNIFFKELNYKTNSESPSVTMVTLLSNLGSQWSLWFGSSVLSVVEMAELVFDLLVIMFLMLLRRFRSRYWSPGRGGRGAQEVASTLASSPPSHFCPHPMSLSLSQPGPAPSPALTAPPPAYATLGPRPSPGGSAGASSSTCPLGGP
Experimental: […] Am J Physiol Lung Cell Mol Physiol. 2013 December; 305(12):L990-L1001. doi: 10.1152/ajplung.00103.2013. Epub 2013 October; Garland et al. Proc Natl Acad Sci USA. 2013 Oct. 1; 110(40):15973-8. doi: 10.1073/pnas.1311999110. Epub 2013 Sep. 16.; Tan et al. J Physiol. 2014 Dec. 1; 592(Pt 23):5251-68). Twenty-four hours later, peptide or vehicle control were added at t=0 and fluorescence was read using a Tecan M1000 plate reader 3 h later. Fluorescence was read at 488 nm (excitation)/510 nm (emission).

proteases = assay type: in vitro ADME
ENaC = target: T2, ENaC (Homo sapiens, UniProt P37088+P51168+P51170); conditions: previously demonstrated (Hobbs et al., 2013); cited from earlier work
T2 construct: Peptides were added mucosally to HBECs at 30 μM and ASL height measured 3 h later by XZ-confocal microscopy; endogenous in cells; host or cells: primary human bronchial epithelial cultures (HBECs) at air-liquid interface
T2 sequence (P37088 1-669): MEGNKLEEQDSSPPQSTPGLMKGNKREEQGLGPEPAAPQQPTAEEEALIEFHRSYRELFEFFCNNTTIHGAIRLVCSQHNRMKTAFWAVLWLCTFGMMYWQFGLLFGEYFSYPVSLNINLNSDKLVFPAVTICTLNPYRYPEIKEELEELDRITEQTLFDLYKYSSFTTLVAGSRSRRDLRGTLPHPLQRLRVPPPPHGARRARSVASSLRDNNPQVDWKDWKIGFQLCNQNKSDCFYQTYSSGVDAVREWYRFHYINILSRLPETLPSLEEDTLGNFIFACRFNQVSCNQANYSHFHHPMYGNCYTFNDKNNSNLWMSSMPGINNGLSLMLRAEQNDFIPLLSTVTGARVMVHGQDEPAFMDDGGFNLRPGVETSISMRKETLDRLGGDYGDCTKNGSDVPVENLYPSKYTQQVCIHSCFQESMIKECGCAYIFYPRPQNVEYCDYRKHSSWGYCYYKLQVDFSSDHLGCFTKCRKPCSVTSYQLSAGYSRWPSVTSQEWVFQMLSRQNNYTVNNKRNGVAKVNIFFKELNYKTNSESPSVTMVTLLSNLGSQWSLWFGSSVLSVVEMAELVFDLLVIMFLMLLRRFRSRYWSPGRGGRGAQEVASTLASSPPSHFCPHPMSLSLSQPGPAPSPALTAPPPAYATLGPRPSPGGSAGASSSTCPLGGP
T2 sequence (P51168 1-640): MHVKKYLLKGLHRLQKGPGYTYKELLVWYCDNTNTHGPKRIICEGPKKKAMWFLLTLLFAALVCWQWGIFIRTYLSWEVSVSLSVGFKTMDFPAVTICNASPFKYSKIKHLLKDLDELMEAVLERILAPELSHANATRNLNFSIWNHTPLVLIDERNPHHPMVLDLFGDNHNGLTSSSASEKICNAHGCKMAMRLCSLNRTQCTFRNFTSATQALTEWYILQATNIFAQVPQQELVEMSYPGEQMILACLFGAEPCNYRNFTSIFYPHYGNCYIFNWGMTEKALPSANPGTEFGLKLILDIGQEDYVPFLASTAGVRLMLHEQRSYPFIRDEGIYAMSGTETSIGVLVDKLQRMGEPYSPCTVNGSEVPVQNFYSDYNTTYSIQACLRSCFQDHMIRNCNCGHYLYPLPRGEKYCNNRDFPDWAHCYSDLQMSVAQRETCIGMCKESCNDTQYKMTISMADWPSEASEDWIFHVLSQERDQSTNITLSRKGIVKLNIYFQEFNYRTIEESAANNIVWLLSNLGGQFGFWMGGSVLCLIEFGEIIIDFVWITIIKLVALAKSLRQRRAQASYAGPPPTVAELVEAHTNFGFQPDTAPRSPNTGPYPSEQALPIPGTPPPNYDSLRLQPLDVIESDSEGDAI
T2 sequence (P51170 1-649): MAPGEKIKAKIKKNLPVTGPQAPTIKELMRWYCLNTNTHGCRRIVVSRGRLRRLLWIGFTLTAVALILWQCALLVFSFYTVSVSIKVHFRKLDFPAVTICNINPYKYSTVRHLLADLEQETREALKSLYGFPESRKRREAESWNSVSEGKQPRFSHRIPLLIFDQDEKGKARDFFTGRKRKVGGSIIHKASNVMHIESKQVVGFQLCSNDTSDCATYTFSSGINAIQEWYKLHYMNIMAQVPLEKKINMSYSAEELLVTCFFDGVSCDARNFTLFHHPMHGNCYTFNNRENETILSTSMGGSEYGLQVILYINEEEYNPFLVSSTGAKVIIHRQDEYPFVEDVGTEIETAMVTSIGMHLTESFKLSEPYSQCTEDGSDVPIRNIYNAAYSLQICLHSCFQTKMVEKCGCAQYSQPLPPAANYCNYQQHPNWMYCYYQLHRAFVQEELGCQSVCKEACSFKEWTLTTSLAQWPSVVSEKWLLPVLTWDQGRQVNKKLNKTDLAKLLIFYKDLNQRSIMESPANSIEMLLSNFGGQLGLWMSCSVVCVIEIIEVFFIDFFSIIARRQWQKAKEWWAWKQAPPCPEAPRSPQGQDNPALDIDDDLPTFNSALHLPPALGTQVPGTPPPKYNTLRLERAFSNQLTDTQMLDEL

alpha-ENaC [2] = target: T3, alpha-ENaC (Homo sapiens, UniProt P37088+P51168+P51170); experiment: Internalization of alpha-ENaC in HEK293T cells, GFP-tagged alpha-ENaC co-expressed with beta and gamma ENaC; assay type: cell-based; conditions: beta-ENaC co-expressed, FIGS. 5A-5U
T3 construct: expressed in transfected cells; host or cells: HEK293T
T3 sequence (P37088 1-669): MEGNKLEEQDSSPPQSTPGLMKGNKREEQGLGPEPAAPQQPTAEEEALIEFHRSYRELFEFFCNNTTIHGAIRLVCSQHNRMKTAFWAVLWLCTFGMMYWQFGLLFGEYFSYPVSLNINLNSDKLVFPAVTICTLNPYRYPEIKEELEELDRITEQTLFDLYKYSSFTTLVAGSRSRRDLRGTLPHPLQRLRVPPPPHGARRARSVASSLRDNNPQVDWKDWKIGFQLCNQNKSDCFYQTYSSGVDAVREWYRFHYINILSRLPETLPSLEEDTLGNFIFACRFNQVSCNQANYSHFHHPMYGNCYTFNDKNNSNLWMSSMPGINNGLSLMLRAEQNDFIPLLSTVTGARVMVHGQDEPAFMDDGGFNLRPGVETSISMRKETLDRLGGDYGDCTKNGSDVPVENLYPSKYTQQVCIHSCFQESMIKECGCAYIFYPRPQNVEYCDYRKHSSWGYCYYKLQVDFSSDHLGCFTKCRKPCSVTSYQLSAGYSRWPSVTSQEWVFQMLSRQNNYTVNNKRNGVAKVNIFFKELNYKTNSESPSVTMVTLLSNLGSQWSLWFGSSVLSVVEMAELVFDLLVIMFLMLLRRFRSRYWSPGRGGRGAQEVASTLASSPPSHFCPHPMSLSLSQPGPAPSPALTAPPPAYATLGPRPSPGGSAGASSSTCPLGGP
T3 sequence (P51168 1-640): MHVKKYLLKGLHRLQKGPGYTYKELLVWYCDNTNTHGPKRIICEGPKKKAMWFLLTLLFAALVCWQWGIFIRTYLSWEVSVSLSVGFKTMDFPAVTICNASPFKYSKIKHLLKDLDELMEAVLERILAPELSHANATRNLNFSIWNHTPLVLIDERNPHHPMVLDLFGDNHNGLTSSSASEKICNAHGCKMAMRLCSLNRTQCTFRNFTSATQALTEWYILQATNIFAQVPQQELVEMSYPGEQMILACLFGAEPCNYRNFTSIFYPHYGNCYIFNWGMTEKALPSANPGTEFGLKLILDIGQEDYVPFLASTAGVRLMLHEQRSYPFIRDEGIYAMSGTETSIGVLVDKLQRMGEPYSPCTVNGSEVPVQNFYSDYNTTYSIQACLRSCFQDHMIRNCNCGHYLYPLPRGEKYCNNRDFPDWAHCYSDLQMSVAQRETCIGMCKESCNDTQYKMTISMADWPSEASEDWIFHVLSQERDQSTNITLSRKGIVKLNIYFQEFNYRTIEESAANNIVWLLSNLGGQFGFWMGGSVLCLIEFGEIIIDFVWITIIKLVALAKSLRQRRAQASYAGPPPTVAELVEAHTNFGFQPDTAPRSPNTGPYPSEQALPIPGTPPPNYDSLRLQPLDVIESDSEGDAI
T3 sequence (P51170 1-649): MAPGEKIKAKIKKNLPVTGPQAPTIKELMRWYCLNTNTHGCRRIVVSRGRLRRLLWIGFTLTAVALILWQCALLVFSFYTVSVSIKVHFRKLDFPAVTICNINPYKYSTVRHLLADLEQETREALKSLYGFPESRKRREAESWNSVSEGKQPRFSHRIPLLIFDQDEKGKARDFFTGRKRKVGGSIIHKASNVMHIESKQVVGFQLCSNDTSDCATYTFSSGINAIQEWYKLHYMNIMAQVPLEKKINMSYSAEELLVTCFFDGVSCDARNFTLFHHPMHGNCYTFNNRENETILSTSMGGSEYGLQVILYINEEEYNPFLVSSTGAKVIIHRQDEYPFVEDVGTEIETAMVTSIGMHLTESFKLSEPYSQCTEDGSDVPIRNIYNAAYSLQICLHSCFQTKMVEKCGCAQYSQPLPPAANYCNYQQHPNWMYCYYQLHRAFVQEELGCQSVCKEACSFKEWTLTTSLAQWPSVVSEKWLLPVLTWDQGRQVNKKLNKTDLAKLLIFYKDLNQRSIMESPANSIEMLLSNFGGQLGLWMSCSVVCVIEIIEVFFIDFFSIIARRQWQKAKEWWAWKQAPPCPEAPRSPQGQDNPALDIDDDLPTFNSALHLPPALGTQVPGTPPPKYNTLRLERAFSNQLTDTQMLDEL
Source text: HEK293T cells were transfected with gfp-αENaC where gfp was fused at the N-terminus of ENaC and unlabeled βENaC and γENaC using lipofectamine in 384 well plates as per the manufacturer's instructions and as published previously (see, e.g., Hobbs et al. Am J Physiol Lung Cell Mol Physiol. 2013 December; 305(12):L990-L1001. doi: 10.1152/ajplung.00103.2013. Epub 2013 October; Garland et al. Proc Natl Acad Sci USA. 2013 Oct. 1; 110(40):15973-8. doi: 10.1073/pnas.1311999110. Epub 2013 Sep. 16.; Tan et al. J Physiol. 2014 Dec. 1; 592(Pt 23):5251-68). Twenty-four hours later, peptide or vehicle control were added at t=0 and fluorescence was read using a Tecan M1000 plate reader 3 h later. Fluorescence was read at 488 nm (excitation)/510 nm (emission).

[3] = target: epithelial Na+ channel (ENaC), endogenous in human bronchial epithelial cultures (human, UniProt P37088 1-669; P51168 1-640; P51170 1-649); experiment: cell-based or functional assay

In the case of H-GGLPVPLDQTLPLNVNPA-NH2 [SEQ ID NO:1], the heat stability (Heat stability) is reported as “heat-stable”, the “effect on alpha-ENaC” value (alpha-ENaC [1]) is reported as “no effect” and the “susceptibility to proteolytic degradation” value (proteases) is reported as “resistant to proteolysis”. The “EC50 for inhibition of ENaC” value (ENaC) was “sub micromolar”, the “duration of ENaC inhibition following a single dose” value (ENaC) was “up to 24 h” and the “reduction of alpha-ENaC / functional receptor on the cell surface” value (alpha-ENaC [2]) was “effective in reducing alpha-ENaC”.

B1: aaLPNlePLDQTaa (SEQ ID NO:5) (peptide)
peptide: [dA][dA]LP[Nle]PLDQT[dA][dA]-NH2
modifications: N-terminus assumed
SMILES: CCCC[C@H](NC(=O)[C@@H]1CCCN1C(=O)[C@H](CC(C)C)NC(=O)[C@@H](C)NC(=O)[C@@H](C)N)C(=O)N1CCC[C@H]1C(=O)N[C@@H](CC(C)C)C(=O)N[C@@H](CC(=O)O)C(=O)N[C@@H](CCC(N)=O)C(=O)N[C@H](C(=O)N[C@H](C)C(=O)N[C@H](C)C(N)=O)[C@@H](C)O
In the case of B1, the “IC50, dose response of ASL height on airway cells” value [3] is reported as 30 nM.
